Test results from patent publication US20060276510A1, “Dihydropyridine compounds and compositions for headaches” (priority 2005, published 2006).

Columns and labels:
[1] = tested on: carrageenan-induced thermal hyperalgesia; experiment: rat carrageenan-induced inflammatory pain model (thermal hyperalgesia, hind paw withdrawal latency); assay type: in vivo, Male Wistar rats; settings: for effect on induced hyperalgesia (withdrawal latency of ipsilateral, carrageenan-injected hind paw): 1 hour after administration
Experimental: Anti-migraine agents are commonly evaluated using the carrageenan-induced thermal hyperalgesia model (Bingham et al, Experimental Neurology, 167:65-73 (2001); Daher et al, Life Sciences, 76:2349-2359 (2005)).
Male Wistar rats (5/group) were used for the experiment. Withdrawal latency to escape from heat noxious stimuli on both hind paws of the rats was measured using TAIL FLICK 7360 (Ugo Basile, Italy). 1% Carageenan was injected into the right hind paw footpat of the rats. […] The withdrawal latency from heat stimuli of both hind paws of rats was measured 1, 3 and 5 hours after drug administration.
The effect of carrageenan was observed during all of the experiment period.

[2] = two hours after infusion; patients; cited from earlier work

| SMILES | effect on induced hyperalgesia (withdrawal latency of ipsilateral, carrageenan-injected hind paw) ([1]; 3 mg/kg orally, FIG. 1) | effect on induced hyperalgesia (withdrawal latency of ipsilateral, carrageenan-injected hind paw) ([1]; 6 mg/kg orally, FIG. 1) | course of the anti-hyperalgesic effect (ipsilateral hind paw) ([1]; 3 and 6 mg/kg orally, 3 and 5 hours after administration, FIG. 1) | withdrawal latency of contralateral hind paw ([1]; orally, contralateral (left) hind paw, FIG. 2) | effect on motor function (suggested from unchanged contralateral latency) ([1]; rats, orally, FIG. 2) | efficacy rate for a sustained response [2] [%] |
| --- | --- | --- | --- | --- | --- | --- |
| N#Cc1ccccc1-c1cc(-c2ccccn2)cn(-c2ccccc2)c1=O [Compound A, 2-(2-oxo-1-phenyl-5-pyridin-2-yl-1,2-dihydropyridin-3-yl)benzonitrile] | inhibited induced hyperalgesia | inhibited induced hyperalgesia | declined | did not change the latency | did not affect motor function |  |
| O=C(O)[C@@H]1C[C@H]2C[C@@H](CCc3nn[nH]n3)CC[C@H]2CN1 [LY293558] |  |  |  |  |  | 69 |
| CNS(=O)(=O)Cc1ccc2[nH]cc(CCN(C)C)c2c1 [sumatriptan] |  |  |  |  |  | 87 |
